Reference: patent US5167963A, “8,10-dideazatetrahydrofolic acid derivatives” (SRI International, priority 1990, dated 1992)
pIC50: −log10 of the molar value. Where two headings read alike, the source gives them in different places.

Experiments:
L1210 cells = experiment: Growth inhibition assay for L1210 cells; format: cell-based; conditions: Mus musculus; 72 hours, murine L1210 cells, RPMI 1640 with 10% fetal calf serum
Excerpt: Murine L1210 cells were obtained as intraperitoneal ascites suspensions from BD2F1 mice. […] Cultures in the logarithmic stage of growth were harvested, resuspended and exposed to test compounds at varying concentrations. Growth of controls was monitored to verify that the growth pattern was normal.

dihydrofolate reductase = conditions: in words; from prior literature/patents; cited from earlier work
[1] = target: T1, glycinamide ribotide formyl transferase (FGAR) (Lacticaseibacillus casei, UniProt A0AAN1KEB7); experiment: Enzyme assay for FGAR (glycinamide ribotide formyl transferase) inhibition; format: biochemical, Lactobacillus casei; conditions: in words
T1 sequence (A0AAN1KEB7 1-189): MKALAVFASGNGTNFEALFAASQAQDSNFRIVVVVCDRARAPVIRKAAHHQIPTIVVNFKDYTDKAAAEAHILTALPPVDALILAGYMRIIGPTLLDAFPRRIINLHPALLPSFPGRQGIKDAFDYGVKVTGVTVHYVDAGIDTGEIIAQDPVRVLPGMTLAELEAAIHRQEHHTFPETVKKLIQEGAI
Method: Inhibition of the glycinamide ribotide formyl transferase (FGAR) and amino-imidazole carboxamide ribotide formyl transferase (AICAR) enzymes was determined by the following test procedure.
Lactobacillus casei extract protein (20 μg) is incubated with 45 μmol of Tris-HCl buffer; pH 7.5, 90 μmol of 2-mercaptoethanol, 0.20 μmol of α,β-glycine-amideribotide and 50 nmol of (6R)-10-formyltetrahydrofolate in 0.9 ml for 1 minute at 30° C. The formation of tetrahydrofolate is followed by change in the ultraviolet maximum at 298 nm. For assay of inhibition the test compounds are added along with the 6R-10-formyl FAHy and the concentration that inhibits the reaction by 50% (Ic50) is determined.

[2] = Cytotoxicity (focus and potency of cytotoxic action); format: cell-based; conditions: in words
[3] = in words; DeGraw et al; cited from earlier work
L1210 leukemia = conditions: in words, Taylor et al, U.S. Pat. No. 4,684,653, cited from earlier work
thymidylate synthase = conditions: in words; J. A. R. Mead et al., Cancer Research (1966); cited from earlier work

| pIC50 (L1210 cells) | SMILES | inhibition of dihydrofolate reductase (dihydrofolate reductase) | other results |
| --- | --- | --- | --- |
| 6.18 | Nc1nc2c(c(=O)[nH]1)N(C=O)C(CCc1ccc(C(=O)NC(CCC(=O)O)C(=O)O)cc1)CC2 (stereo not drawn) [Compound 5] |  |  |
|  | Nc1nc2c(c(=O)[nH]1)CC(CCc1ccc(C(=O)N[C@@H](CCC(=O)O)C(=O)O)cc1)CC2 (stereo partly drawn) [5,8, 10-trideaza FH4] |  | inhibition of glycinamide ribotide transformylase (GAR transformylase, FGAR) [1]: devoid of enzyme or cytotoxic action; cytotoxic action [2]: devoid of enzyme or cytotoxic action |
|  | Nc1nc2ccc(CCc3ccc(C(=O)N[C@@H](CCC(=O)O)C(=O)O)cc3)nc2c(=O)[nH]1 [8,10-dideazafolic acid] | did not significantly affect DHFR | antifolate activity [3]: active antifolates |
|  | Nc1nc2ccc(CNc3ccc(C(=O)N[C@@H](CCC(=O)O)C(=O)O)cc3)nc2c(=O)[nH]1 [8-deazafolic acid] | did not significantly affect DHFR |  |
| 7.42 | CN1c2c(nc(N)[nH]c2=O)CCC1CCc1ccc(C(=O)N[C@@H](CCC(=O)O)C(=O)O)cc1 (stereo partly drawn) [Compound 4, 5-Methyl-8,10-dideaza-5,6,7,8-tetrahydrofolic Acid] |  |  |
|  | Nc1nc2c(c(=O)[nH]1)N[C@@H](CCNc1ccc(C(=O)NC(CCC(=O)O)C(=O)O)cc1)CN2 (stereo partly drawn) [tetrahydrohomofolate] |  | inhibition of thymidylate synthetase in vitro (thymidylate synthase): potent inhibitor |
| 7.01 | Nc1nc2c(c(=O)[nH]1)NC(CCc1ccc(C(=O)N[C@@H](CCC(=O)O)C(=O)O)cc1)CC2 (stereo partly drawn) [Compound 3, 8,10-Dideaza-5,6,7,8-tetrahydrofolic Acid] |  |  |

| SMILES | pIC50 (L1210 cells) | inhibition of dihydrofolate reductase (dihydrofolate reductase) | other results |
| --- | --- | --- | --- |
| CN(Cc1cnc2nc(N)nc(N)c2n1)c1ccc(C(=O)N[C@@H](CCC(=O)O)C(=O)O)cc1 [Compound 1, methotrexate] | 8.37 | inhibiting dihydrofolate reductase (DHFR) |  |
| Nc1nc2c(c(=O)[nH]1)CC(CCc1ccc(C(=O)N[C@@H](CCC(=O)O)C(=O)O)cc1)CN2 (stereo partly drawn) [Compound 2, N-(4-[2-(2-amino-4-hydroxy-5,6,7,8-tetrahydropyrido[2,3-d]pyrimidin-6-yl)-ethyl]benzoyl)-L-glutamic acid] | 7.38 | weak inhibitor of dihydrofolate reductase | inhibition of glycinamide ribotide transformylase (GAR transformylase, FGAR) ([1]; listed as DDTHF): potent inhibitor of GAR transformylase; inhibition of glycinamide ribotide transformylase (GAR transformylase, FGAR) ([1]; listed as Taylor et al compound): clearly an inhibitor of FGAR; cytotoxic action [2]: potent cytotoxin; activity against L1210 leukemia (L1210 leukemia; listed as N-(4-[2-(2-amino-4-hydroxy-5,6,7,8-tetrahydropyrido[2,3-d]pyrimidin-6-yl)- e thy): good activity against L-1210 leukemia which is comparable to methotrexate; activity against L1210 leukemia (L1210 leukemia; listed as N-(4-[2-(2-amino-4-hydroxy-5,6,7,8-tetrahydropyrido[2,3-d]pyrimidin-6-yl)- ethyl): good activity against L1210 leukemia which is comparable to methotrexate |
